Patent publication US9688710B2, “Inhibitors of sodium glucose cotransporter 1” (LEXICON PHARMACEUTICALS, INC., priority 2012, dated 2017)

Assays:
[1] = target: Human sodium/glucose co-transporter type 2 (SGLT2) (Homo sapiens (Human), UniProt P31639); experiment: In vitro human SGLT2 inhibition assay (14C-AMG uptake); type: cell-based; design: key to SGLT2 (human SGLT2 IC50): ***: a value less than 0.01 μM; **: a value less than 0.1 μM; *: a value less than 1 μM; —: a value not measured or exceeding μM; conditions: HEK293 cells expressing human HA-SGLT2, 14C-AMG uptake
Human sodium/glucose co-transporter type 2 (SGLT2), sequence (P31639 whole entry): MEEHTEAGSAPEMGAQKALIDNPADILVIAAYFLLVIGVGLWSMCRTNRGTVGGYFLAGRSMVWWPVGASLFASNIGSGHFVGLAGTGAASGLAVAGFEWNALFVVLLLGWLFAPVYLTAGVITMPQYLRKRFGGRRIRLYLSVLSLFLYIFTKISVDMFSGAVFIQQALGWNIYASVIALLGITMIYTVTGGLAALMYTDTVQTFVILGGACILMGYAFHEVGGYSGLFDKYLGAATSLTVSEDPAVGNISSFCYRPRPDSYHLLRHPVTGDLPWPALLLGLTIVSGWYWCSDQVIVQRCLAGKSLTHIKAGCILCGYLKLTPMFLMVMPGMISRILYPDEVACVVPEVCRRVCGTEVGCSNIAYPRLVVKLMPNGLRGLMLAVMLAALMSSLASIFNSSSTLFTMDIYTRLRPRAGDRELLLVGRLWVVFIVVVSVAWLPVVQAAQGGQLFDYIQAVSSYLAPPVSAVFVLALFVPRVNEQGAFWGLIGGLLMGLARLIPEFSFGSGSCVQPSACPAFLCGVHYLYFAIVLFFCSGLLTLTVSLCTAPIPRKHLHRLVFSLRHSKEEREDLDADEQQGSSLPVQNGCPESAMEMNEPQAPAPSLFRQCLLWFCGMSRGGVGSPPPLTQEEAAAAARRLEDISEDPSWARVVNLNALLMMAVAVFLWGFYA
Outline: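 Uptake of 14C-AMG (100 nCi) was followed in a stable HEK293 HA-SGLT2 line over 1-2 h at 37 °C with or without compound. Buffer: 140 mM NaCl, 10 mM HEPES, 5 mM Tris, 1 mg/mL BSA, pH 7.3. Readout was scintillation counting after washing.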

[2] = target: Human sodium/glucose co-transporter type 1 (SGLT1) (Homo sapiens (Human), UniProt P13866); experiment: In vitro human SGLT1 inhibition assay (14C-AMG uptake); type: cell-based; design: key to SGLT1 (human SGLT1 IC50): ***: a value less than 0.01 μM; **: a value less than 0.1 μM; *: a value less than 1 μM; —: a value not measured or exceeding μM; conditions: HEK293 cells expressing human HA-SGLT1, 14C-AMG uptake
Human sodium/glucose co-transporter type 1 (SGLT1), sequence (P13866 whole entry): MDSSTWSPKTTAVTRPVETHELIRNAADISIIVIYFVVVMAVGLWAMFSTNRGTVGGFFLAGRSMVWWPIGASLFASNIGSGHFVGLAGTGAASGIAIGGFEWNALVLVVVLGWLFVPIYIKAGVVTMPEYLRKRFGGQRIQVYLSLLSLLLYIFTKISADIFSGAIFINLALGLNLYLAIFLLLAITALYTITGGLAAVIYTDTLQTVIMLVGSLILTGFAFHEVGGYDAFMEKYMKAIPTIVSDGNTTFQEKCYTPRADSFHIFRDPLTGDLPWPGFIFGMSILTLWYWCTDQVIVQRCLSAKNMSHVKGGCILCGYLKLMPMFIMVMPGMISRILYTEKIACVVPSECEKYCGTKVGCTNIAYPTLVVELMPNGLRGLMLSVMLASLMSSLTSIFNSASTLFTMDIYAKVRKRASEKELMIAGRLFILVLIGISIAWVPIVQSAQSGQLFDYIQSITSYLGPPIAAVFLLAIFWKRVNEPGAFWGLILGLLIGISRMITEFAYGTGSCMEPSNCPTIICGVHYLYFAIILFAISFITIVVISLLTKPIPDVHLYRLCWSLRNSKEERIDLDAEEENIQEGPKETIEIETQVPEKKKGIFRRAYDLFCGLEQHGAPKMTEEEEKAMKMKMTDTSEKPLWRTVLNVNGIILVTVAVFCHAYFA
Outline: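 Uptake of 14C-AMG (100 nCi) was measured by scintillation counting after 1–2 h at 37 °C, 5% CO2, with or without compound. The buffer was pH 7.3 with 140 mM NaCl, 1 mM CaCl2, 1 mM MgCl2 and 1 mg/mL BSA. Cells were a stable HEK293 line carrying HA-SGLT1 (human), plated overnight at 30,000 per well.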

IC50 [1] [nM] | IC50 [2] [nM] | SGLT1 (human SGLT1 IC50) [2] | SGLT2 (human SGLT2 IC50) [1] | Compound
< 10 | < 10 |  |  | CS[C@H]1O[C@@H](c2ccc(C)c(Cc3ccc(CCCCC(=O)NC(C)(C)CO)cc3)c2)[C@H](O)[C@@H](O)[C@@H]1O [N-(1-hydroxy-2-methylpropan-2-yl)-5-(4-(2-methyl-5-((2S,3R,4R,5S,6R)-3,4,5-trihydroxy-6-(methylthio)tetrahydro-2H-pyran-2-yl)benzyl)phenyl)pentanamide]
< 10 | < 100 |  |  | CS[C@H]1O[C@@H](c2ccc(C)c(Cc3ccc(CCCCNC(=O)NC(C)(C)CO)cc3)c2)[C@H](O)[C@@H](O)[C@@H]1O [1-(1-hydroxy-2-methylpropan-2-yl)-3-(4-(4-(2-methyl-5-((2S,3R,4R,5S,6R)-3,4,5-trihydroxy-6-(methylthio)tetrahydro-2H-pyran-2-yl)benzyl)phenyl)butyl)urea]
< 10 | < 100 |  |  | CS[C@H]1O[C@@H](c2ccc(C)c(Cc3ccc(OCC(N)=O)cc3)c2)[C@H](O)[C@@H](O)[C@@H]1O [2-(4-(2-methyl-5-((2S,3R,4R,5S,6R)-3,4,5-trihydroxy-6-(methylthio)tetrahydro-2H-pyran-2-yl)benzyl)phenoxy)acetamide]
< 10 | < 100 |  |  | CS[C@H]1O[C@@H](c2ccc(C)c(Cc3ccc(OCCCC(=O)NC(C)(C)C(=O)N(C)CCN(C)C)cc3)c2)[C@H](O)[C@@H](O)[C@@H]1O [N-(1-((2-(dimethylamino)ethyl)(methyl)amino)-2-methyl-1-oxopropan-2-yl)-4-(4-(2-methyl-5-((2S,3R,4R,5S,6R)-3,4,5-trihydroxy-6-(methylthio)tetrahydro-2H-pyran-2-yl)benzyl)phenoxy)butanamide]
< 10 | < 10 |  |  | CS[C@H]1O[C@@H](c2ccc(C)c(Cc3ccc(CCCC(=O)NCC(C)(C)C(=O)N4CCN(C)CC4)cc3)c2)[C@H](O)[C@@H](O)[C@@H]1O [N-(2,2-dimethyl-3-(4-methylpiperazin-1-yl)-3-oxopropyl)-4-(4-(2-methyl-5-((2S,3R,4R,5S,6R)-3,4,5-trihydroxy-6-(methylthio)tetrahydro-2H-pyran-2-yl)benzyl)phenyl)butanamide]
< 10 | < 100 |  |  | COCCOCCOc1ccc(Cc2cc([C@@H]3O[C@H](SC)[C@@H](O)[C@H](O)[C@H]3O)ccc2Cl)cc1 [(2S,3R,4R,5S,6R)-2-(4-chloro-3-(4-(2-(2-methoxyethoxy)ethoxy)benzyl)phenyl)-6-(methylthio)tetrahydro-2H-pyran-3,4,5-triol]
< 10 | < 100 |  |  | CS[C@H]1O[C@@H](c2ccc(C)c(Cc3ccc(OCC(=O)NC(C)(C)C(N)=O)cc3)c2)[C@H](O)[C@@H](O)[C@@H]1O [2-methyl-2-(2-(4-(2-methyl-5-((2S,3R,4R,5S,6R)-3,4,5-trihydroxy-6-(methylthio)tetrahydro-2H-pyran-2-yl)benzyl)phenoxy)acetamido)propanamide]
< 10 | < 10 |  |  | CCC(=O)NCCOc1ccc(Cc2cc([C@@H]3O[C@H](SC)[C@@H](O)[C@H](O)[C@H]3O)ccc2Cl)cc1 [N-(2-(4-(2-chloro-5-((2S,3R,4R,5S,6R)-3,4,5-trihydroxy-6-(methylthio)tetrahydro-2H-pyran-2-yl)benzyl)phenoxy)ethyl)propionamide]
< 10 | < 100 |  |  | CS[C@H]1O[C@@H](c2ccc(C)c(Cc3ccc(CCCCC(=O)NCCCC[C@H](N)C(=O)O)cc3)c2)[C@H](O)[C@@H](O)[C@@H]1O [(S)-2-amino-6-(5-(4-(2-methyl-5-((2S,3R,4R,5S,6R)-3,4,5-trihydroxy-6-(methylthio)tetrahydro-2H-pyran-2-yl)benzyl)phenyl)pentanamido)hexanoic acid]
< 100 |  | — |  | CS[C@H]1O[C@@H](c2ccc(C)c(Cc3ccc(CCCCC(=O)NC(C)(C)C(=O)O)cc3)c2)[C@H](O)[C@@H](O)[C@@H]1O [2-methyl-2-(5-(4-(2-methyl-5-((2S,3R,4R,5S,6R)-3,4,5-trihydroxy-6-(methylthio)tetrahydro-2H-pyran-2-yl)benzyl)phenyl)pentanamido)propanoic acid]
< 10 | < 10 |  |  | CS[C@H]1OC(c2ccc(C)c(Cc3ccc(CCCCCl)cc3)c2)[C@H](O)[C@@H](O)[C@@H]1O (stereo partly drawn) [(3R,4R,5S,6R)-2-(3-(4-(4-chlorobutyl)benzyl)-4-methylphenyl)-6-(methylthio)tetrahydro-2H-pyran-3,4,5-triol]
< 10 | < 100 |  |  | CS[C@H]1O[C@@H](c2ccc(C)c(Cc3ccc(/C=C/CC(C(=O)NC(C)(C)C(N)=O)C(=O)NC(C)(C)C(N)=O)cc3)c2)[C@H](O)[C@@H](O)[C@@H]1O [N1,N3-bis(1-amino-2-methyl-1-oxopropan-2-yl)-2-((E)-3-(4-(2-methyl-5-((2S,3R,4R,5S,6R)-3,4,5-trihydroxy-6-(methylthio)tetrahydro-2H-pyran-2-yl)benzyl)phenyl)allyl)malonamide]
< 10 | < 100 |  |  | CS[C@H]1O[C@@H](c2ccc(C)c(Cc3ccc(OCCNC4(C(N)=O)CCCC4)cc3)c2)[C@H](O)[C@@H](O)[C@@H]1O [1-((2-(4-(2-methyl-5-((2S,3R,4R,5S,6R)-3,4,5-trihydroxy-6-(methylthio)tetrahydro-2H-pyran-2-yl)benzyl)phenoxy)ethyl)amino)cyclopentanecarboxamide]
< 10 | < 10 |  |  | CS[C@H]1O[C@@H](c2ccc(C)c(Cc3ccc(CCCc4nnn(CC(=O)N5CCN(C)CC5)n4)cc3)c2)[C@H](O)[C@@H](O)[C@@H]1O [2-(5-(3-(4-(2-methyl-5-((2S,3R,4R,5S,6R)-3,4,5-trihydroxy-6-(methylthio)tetrahydro-2H-pyran-2-yl)benzyl)phenyl)propyl)-2H-tetrazol-2-yl)-1-(4-methylpiperazin-1-yl)ethanone]
< 10 | < 10 |  |  | CS[C@H]1O[C@@H](c2ccc(C)c(Cc3ccc(CCCC(=O)NC4(C(=O)N5CCN(C)CC5)CCOCC4)cc3)c2)[C@H](O)[C@@H](O)[C@@H]1O [4-(4-(2-methyl-5-((2S,3R,4R,5S,6R)-3,4,5-trihydroxy-6-(methylthio)tetrahydro-2H-pyran-2-yl)benzyl)phenyl)-N-(4-(4-methylpiperazine-1-carbonyl)tetrahydro-2H-pyran-4-yl)butanamide]
< 10 | < 10 |  |  | CS[C@H]1O[C@@H](c2ccc(Cl)c(Cc3ccc(OCCCC(=O)N(C)C(C)(C)C(N)=O)cc3)c2)[C@H](O)[C@@H](O)[C@@H]1O [N-(1-amino-2-methyl-1-oxopropan-2-yl)-4-(4-(2-chloro-5-((2S,3R,4R,5S,6R)-3,4,5-trihydroxy-6-(methylthio)tetrahydro-2H-pyran-2-yl)benzyl)phenoxy)-N-methylbutanamide]
< 10 | < 100 |  |  | CS[C@H]1O[C@@H](c2ccc(C)c(Cc3ccc(CCCC(=O)NC(C)(C)C(=O)O)cc3)c2)[C@H](O)[C@@H](O)[C@@H]1O [2-methyl-2-(4-(4-(2-methyl-5-((2S,3R,4R,5S,6R)-3,4,5-trihydroxy-6-(methylthio)tetrahydro-2H-pyran-2-yl)benzyl)phenyl)butanamido)propanoic acid]
< 10 | < 100 |  |  | CS[C@H]1O[C@@H](c2ccc(C)c(Cc3ccc(/C=C/C[C@H](N)C(=O)O)cc3)c2)[C@H](O)[C@@H](O)[C@@H]1O [(S,E)-2-amino-5-(4-(2-methyl-5-((2S,3R,4R,5S,6R)-3,4,5-trihydroxy-6-(methylthio)tetrahydro-2H-pyran-2-yl)benzyl)phenyl)pent-4-enoic acid]
< 100 |  | — |  | CS[C@H]1O[C@@H](c2ccc(C)c(Cc3ccc(CCCC#N)cc3)c2)[C@H](O)[C@@H](O)[C@@H]1O [4-(4-(2-methyl-5-((2S,3R,4R,5S,6R)-3,4,5-trihydroxy-6-(methylthio)tetrahydro-2H-pyran-2-yl)benzyl)phenyl)butanenitrile]
< 10 | < 10 |  |  | CS[C@H]1O[C@@H](c2ccc(C)c(Cc3ccc(CCCC(=O)NC(C)(C)C(=O)N4CCNCC4)cc3)c2)[C@H](O)[C@@H](O)[C@@H]1O [N-(2-methyl-1-oxo-1-(piperazin-1-yl)propan-2-yl)-4-(4-(2-methyl-5-((2S,3R,4R,5S,6R)-3,4,5-trihydroxy-6-(methylthio)tetrahydro-2H-pyran-2-yl)benzyl)phenyl)butanamide]
 |  | — | — | COc1ccc(Cc2cc([C@@H]3O[C@H](SC)[C@@H](O)[C@H](O)[C@H]3O)ccc2OC(F)(F)F)cc1 [(2S,3R,4R,5S,6R)-2-(3-(4-methoxybenzyl)-4-(trifluoromethoxy)phenyl)-6-(methylthio)tetrahydro-2H-pyran-3,4,5-triol]
< 10 | < 10 |  |  | CS[C@H]1O[C@@H](c2ccc(C)c(Cc3ccc(CCCC(=O)NC(C)(C)C(=O)NCCN(C)C)cc3)c2)[C@H](O)[C@@H](O)[C@@H]1O [N-(1-((2-(dimethylamino)ethyl)amino)-2-methyl-1-oxopropan-2-yl)-4-(4-(2-methyl-5-((2S,3R,4R,5S,6R)-3,4,5-trihydroxy-6-(methylthio)tetrahydro-2H-pyran-2-yl)benzyl)phenyl)butanamide]
